Reference: ChEMBL document CHEMBL1201862, “PubChem BioAssay data set” (2004)
Calls of active or inactive are those of the source.

Columns and labels:
SUMO E1/E2 = SUMO E1/E2 (Homo sapiens, UniProt P63279+Q9UBE0+Q9UBT2); test: SAR analysis of SUMOylation using HTRF in an in-Vitro dose response assay. [Related pubchem assays (depositor defined):AID2006, AID2011, AID2018, AID2069, AID2658]; assay type: functional
Protein RecA = molecular target: T1, Protein RecA (Mycobacterium tuberculosis, UniProt P9WHJ3); test: Fluorescence Cell-Free Homogeneous Dose Retest to Identify Inhibitors of RecA-Intein Splicing Activity. [Related pubchem assays (depositor defined):AID2097, AID2223, AID489010, AID492950]; assay type: functional
T1 sequence (P9WHJ3 whole entry): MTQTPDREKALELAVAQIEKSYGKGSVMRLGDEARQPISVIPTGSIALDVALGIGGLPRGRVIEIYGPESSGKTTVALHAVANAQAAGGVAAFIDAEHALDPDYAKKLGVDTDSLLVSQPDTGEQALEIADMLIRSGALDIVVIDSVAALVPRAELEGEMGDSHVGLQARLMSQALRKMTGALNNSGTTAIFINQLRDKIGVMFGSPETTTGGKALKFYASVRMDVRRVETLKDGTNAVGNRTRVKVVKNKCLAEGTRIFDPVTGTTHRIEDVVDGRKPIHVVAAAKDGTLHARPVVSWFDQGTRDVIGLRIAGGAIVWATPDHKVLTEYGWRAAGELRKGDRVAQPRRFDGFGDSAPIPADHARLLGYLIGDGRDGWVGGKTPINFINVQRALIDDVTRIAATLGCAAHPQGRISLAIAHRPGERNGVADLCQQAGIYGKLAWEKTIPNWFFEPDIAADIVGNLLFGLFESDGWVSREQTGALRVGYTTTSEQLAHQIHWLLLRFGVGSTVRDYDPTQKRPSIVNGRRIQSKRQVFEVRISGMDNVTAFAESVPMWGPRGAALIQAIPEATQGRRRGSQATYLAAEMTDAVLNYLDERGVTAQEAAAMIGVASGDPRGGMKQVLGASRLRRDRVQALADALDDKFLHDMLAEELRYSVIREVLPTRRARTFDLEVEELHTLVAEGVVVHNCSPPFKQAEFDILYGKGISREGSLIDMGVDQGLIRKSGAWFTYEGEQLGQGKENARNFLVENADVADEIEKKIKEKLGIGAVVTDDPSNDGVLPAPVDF

[1] = molecular target: T2, Histone-lysine N-methyltransferase NSD2 (Homo sapiens, UniProt O96028); assay type: biochemical
T2 sequence (O96028 whole entry): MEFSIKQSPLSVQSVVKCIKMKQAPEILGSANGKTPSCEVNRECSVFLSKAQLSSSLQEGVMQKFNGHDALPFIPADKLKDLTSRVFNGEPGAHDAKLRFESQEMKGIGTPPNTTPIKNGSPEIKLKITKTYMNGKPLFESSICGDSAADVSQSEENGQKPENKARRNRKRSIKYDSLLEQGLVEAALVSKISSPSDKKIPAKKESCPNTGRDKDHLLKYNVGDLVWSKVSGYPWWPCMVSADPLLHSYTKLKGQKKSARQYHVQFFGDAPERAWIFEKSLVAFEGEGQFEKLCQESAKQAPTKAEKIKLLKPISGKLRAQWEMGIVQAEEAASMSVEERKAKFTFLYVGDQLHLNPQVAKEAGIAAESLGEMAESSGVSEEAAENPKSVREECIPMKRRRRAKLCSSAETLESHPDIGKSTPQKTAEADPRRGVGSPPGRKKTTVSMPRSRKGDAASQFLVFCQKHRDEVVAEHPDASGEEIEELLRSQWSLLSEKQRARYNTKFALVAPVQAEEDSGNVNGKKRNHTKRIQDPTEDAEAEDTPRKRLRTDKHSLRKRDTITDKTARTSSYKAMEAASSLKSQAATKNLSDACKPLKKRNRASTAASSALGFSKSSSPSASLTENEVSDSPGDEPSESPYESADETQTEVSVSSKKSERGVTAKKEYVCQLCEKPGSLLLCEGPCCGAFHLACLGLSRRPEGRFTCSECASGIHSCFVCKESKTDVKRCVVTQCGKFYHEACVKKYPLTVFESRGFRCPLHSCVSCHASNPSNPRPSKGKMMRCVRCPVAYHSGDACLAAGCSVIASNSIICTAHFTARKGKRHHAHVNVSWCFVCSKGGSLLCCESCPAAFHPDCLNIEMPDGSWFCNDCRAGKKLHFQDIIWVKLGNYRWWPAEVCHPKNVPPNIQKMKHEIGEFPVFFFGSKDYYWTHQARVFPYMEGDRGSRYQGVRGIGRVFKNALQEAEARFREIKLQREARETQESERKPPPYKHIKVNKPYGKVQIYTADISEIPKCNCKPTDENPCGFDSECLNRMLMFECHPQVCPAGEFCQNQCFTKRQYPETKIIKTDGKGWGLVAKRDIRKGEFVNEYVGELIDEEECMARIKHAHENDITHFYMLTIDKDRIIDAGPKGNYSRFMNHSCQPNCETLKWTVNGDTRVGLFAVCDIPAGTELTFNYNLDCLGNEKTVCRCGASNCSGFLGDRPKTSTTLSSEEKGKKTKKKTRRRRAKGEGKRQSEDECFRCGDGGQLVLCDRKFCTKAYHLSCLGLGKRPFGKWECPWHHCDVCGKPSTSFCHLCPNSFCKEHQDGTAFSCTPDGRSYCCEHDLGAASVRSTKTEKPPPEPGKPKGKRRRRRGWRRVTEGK

Vero = test: viability of Vero cells under compound – cytotoxicity control for flavivirus capping enzyme inhibitors (AID 588742); assay type: functional; details: Chlorocebus sabaeus
SUMO-activating enzyme [2] = molecular target: T3, SUMO-activating enzyme (Homo sapiens, UniProt Q9UBT2); test: blockers of SAE1/SAE2–UBC9 SUMO transfer – biochemical, HTRF, uHTS, primary screen (AID 2006); assay type: protein-complex assay
Genome polyprotein = Genome polyprotein (dengue virus type 2, UniProt P29990); test: flavivirus cap methylation enzyme inhibition – biochemical, confirmation dose response, primary screen (AID 588689); assay type: functional
SUMO-activating enzyme [3] = molecular target: T3, SUMO-activating enzyme; test: blockers of UBC9-mediated SUMO conjugation – biochemical, AlphaScreen, SUMOylation inhibitor project, confirmation (AID 2018); assay type: functional
Phospholipase D1 = Phospholipase D1 (Homo sapiens, UniProt Q13393); test: cellular phospholipase D1 inhibition IC50 – cell-based, dose response (AID 602151); assay type: functional;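 also: cellular PLD1 assay in Calu-1 cells stimulated with PMA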
Phospholipase D2 = Phospholipase D2 (Homo sapiens, UniProt O14939); test: cellular phospholipase D2 inhibition IC50 – cell-based, dose response (AID 602147); assay type: functional;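 also: cellular assay in HEK293 cells overexpressing GFP-tagged PLD2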
[4] = molecular target: T4, Sentrin-specific protease 8 (Homo sapiens, UniProt Q96LD8); assay type: functional
T4 sequence (Q96LD8 whole entry): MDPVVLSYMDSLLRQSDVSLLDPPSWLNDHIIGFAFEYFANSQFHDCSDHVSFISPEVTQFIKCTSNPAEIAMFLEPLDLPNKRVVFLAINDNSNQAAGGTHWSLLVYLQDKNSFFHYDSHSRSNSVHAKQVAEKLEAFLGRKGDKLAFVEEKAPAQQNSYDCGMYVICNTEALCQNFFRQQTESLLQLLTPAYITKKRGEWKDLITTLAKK

[5] = molecular target: T4, Sentrin-specific protease 8; assay type: functional; remark: listed apart in the source
Nonstructural protein 1 = Nonstructural protein 1 (Influenza A virus, UniProt Q194T2); assay type: functional, Influenza A virus (A/California/07/2009(H1N1))
[6] = molecular target: Glucose-6-phosphate 1-dehydrogenase (Homo sapiens, UniProt P11413); test: inhibition of Homo sapiens G6PD, dose series – biochemical, fluorescence, selectivity assay for P. falciparum G6PD inhibitor project, dose response (AID 504792); assay type: functional
[7] = molecular target: T5, Polyadenylate-binding protein 1 (Homo sapiens, UniProt P11940); test: MLLE binding blockers, Cy5 peptide tracer – biochemical, fluorescence polarization, Cy5-PAM2 peptide, secondary, miRNA deadenylation inhibitor project, dose response (AID 602260); assay type: functional; details: read-out: IC50_Mean
[8] = molecular target: T5, Polyadenylate-binding protein 1; test: MLLE domain peptide-binding blockers, IC50 – biochemical, fluorescence polarization, FITC-PAM2 peptide, dose response (AID 602259); assay type: functional; details: read-out: IC50_Mean

Phospholipase D1, sequence (Q13393 whole entry): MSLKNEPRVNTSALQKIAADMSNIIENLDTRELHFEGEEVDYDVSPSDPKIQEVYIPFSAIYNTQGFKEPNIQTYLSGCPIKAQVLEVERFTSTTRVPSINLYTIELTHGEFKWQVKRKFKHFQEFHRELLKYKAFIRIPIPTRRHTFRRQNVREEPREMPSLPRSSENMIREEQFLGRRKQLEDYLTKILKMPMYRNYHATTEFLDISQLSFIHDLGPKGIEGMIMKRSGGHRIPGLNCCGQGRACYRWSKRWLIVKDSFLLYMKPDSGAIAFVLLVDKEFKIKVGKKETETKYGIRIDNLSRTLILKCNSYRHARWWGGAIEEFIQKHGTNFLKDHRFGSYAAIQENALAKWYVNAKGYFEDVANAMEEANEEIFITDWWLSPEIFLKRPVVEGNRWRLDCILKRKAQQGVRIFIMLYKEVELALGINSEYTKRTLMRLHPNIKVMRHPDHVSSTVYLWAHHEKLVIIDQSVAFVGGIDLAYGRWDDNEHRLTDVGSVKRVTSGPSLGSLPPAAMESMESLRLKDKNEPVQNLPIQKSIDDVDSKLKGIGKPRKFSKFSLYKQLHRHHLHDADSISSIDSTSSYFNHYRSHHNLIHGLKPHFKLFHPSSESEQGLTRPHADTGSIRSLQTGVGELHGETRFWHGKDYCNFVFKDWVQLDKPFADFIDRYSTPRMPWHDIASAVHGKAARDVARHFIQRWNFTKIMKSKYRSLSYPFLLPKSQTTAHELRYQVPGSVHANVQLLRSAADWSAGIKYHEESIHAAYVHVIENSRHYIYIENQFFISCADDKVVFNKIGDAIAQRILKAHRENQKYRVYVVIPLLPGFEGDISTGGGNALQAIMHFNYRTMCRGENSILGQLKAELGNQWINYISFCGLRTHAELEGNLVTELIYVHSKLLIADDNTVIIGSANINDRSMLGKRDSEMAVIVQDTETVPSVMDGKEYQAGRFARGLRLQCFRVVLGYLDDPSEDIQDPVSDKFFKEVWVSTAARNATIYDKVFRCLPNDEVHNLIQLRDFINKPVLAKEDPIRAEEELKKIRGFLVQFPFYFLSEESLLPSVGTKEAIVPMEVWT
T3 sequence (Q9UBE0 whole entry): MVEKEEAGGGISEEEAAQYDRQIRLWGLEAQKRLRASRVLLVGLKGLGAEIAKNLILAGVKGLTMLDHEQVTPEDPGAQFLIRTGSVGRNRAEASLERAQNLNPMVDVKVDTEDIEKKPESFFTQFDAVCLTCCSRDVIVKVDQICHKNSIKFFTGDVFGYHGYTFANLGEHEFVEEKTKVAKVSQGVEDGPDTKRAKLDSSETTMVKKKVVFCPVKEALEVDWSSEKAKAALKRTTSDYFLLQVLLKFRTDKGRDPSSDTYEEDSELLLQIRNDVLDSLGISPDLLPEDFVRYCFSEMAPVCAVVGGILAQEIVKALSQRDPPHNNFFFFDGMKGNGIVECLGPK
T3 sequence (Q9UBT2 whole entry): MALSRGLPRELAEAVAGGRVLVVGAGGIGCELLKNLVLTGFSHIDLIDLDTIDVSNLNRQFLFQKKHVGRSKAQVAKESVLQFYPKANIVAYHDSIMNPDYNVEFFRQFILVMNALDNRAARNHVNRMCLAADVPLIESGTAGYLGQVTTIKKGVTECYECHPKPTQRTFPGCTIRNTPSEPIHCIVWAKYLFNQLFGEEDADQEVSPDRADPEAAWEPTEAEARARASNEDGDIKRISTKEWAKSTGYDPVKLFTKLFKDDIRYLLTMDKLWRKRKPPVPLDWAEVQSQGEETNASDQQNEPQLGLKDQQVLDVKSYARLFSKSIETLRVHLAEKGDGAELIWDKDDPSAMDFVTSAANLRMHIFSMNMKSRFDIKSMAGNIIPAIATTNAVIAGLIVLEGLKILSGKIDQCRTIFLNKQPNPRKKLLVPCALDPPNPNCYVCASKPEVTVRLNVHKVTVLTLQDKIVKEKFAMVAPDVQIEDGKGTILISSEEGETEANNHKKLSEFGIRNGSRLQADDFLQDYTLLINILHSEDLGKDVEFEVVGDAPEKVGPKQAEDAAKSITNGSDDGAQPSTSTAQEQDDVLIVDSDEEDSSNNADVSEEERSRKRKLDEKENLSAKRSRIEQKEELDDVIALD
Phospholipase D2, sequence (O14939 whole entry): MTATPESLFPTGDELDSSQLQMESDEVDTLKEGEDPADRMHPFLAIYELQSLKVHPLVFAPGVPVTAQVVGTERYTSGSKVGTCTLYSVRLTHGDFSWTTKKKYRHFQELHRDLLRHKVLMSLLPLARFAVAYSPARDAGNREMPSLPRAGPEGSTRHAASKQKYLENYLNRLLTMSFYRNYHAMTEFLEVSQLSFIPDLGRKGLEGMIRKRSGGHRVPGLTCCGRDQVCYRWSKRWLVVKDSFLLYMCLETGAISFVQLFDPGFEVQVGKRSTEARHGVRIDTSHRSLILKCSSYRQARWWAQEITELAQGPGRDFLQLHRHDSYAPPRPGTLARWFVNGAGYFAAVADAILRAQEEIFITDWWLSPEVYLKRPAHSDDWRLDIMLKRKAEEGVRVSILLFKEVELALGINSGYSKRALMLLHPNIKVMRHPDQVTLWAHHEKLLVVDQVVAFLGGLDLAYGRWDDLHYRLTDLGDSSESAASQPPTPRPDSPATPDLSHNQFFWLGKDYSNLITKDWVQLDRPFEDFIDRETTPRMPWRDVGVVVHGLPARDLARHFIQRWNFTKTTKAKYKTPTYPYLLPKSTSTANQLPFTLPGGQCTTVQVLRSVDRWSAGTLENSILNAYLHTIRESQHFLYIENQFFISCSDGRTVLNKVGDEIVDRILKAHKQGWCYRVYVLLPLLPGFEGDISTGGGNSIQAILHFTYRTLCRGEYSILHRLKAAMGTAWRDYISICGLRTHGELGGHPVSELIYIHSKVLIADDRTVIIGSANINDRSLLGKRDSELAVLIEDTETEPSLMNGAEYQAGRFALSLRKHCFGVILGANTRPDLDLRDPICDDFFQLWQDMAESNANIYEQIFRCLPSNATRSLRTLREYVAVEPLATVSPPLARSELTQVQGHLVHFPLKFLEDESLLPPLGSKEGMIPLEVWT
T5 sequence (P11940 whole entry, the tested form may be a part): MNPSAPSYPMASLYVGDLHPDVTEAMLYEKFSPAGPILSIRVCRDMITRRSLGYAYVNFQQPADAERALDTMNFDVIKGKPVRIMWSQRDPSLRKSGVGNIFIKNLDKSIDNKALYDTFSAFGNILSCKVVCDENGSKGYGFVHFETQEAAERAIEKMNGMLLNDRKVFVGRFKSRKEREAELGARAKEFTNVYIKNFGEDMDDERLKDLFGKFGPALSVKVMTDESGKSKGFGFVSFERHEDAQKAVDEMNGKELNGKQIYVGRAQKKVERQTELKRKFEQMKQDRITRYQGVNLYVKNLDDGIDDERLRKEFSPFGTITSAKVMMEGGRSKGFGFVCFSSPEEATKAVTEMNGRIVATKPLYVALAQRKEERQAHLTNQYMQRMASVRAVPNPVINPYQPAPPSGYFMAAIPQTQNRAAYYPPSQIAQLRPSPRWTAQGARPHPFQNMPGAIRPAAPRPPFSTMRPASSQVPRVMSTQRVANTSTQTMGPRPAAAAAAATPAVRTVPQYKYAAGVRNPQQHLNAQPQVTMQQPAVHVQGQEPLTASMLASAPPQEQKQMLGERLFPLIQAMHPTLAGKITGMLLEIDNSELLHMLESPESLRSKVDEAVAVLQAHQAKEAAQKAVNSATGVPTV
Genome polyprotein, sequence (P29990 2492-3391 limits assumed): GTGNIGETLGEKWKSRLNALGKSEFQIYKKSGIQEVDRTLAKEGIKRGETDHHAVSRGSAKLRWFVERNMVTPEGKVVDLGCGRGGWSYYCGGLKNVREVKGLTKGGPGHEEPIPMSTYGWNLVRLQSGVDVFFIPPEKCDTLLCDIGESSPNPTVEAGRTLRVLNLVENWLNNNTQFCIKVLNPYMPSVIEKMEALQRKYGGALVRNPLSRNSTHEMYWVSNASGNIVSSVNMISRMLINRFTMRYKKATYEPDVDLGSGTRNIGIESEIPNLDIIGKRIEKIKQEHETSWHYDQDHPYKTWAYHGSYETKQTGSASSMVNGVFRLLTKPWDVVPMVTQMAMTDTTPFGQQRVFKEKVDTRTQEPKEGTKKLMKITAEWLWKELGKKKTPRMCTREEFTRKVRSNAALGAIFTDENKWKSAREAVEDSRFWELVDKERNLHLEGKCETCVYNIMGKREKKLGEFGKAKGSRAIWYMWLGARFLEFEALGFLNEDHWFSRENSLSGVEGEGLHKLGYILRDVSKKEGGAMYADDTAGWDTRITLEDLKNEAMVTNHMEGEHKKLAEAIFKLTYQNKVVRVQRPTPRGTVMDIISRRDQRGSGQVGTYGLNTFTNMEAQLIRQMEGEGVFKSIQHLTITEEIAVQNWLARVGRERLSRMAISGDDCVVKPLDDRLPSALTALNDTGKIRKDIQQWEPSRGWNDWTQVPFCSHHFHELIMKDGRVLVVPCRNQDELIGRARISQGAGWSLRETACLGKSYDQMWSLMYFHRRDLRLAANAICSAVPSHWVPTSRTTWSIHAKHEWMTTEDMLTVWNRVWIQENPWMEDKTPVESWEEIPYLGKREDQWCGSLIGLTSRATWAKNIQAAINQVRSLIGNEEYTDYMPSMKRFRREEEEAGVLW
SUMO E1/E2, sequence (Q9UBE0 whole entry): as the sequence (Q9UBE0 whole entry) above
SUMO E1/E2, sequence (Q9UBT2 whole entry): as the sequence (Q9UBT2 whole entry) above
SUMO E1/E2, sequence (P63279 whole entry): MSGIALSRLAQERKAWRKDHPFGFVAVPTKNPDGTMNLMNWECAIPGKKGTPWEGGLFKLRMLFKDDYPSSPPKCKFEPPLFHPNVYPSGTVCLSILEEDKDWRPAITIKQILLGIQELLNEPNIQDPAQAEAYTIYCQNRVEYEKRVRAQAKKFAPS
Nonstructural protein 1, sequence (Q194T2 whole entry): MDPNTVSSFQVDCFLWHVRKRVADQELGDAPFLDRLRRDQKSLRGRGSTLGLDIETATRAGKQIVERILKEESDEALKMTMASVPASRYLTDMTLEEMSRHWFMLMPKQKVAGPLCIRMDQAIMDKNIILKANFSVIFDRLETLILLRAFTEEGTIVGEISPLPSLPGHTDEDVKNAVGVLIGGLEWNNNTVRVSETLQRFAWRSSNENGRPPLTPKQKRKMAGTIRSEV

CCCCn1c(NC(=O)c2ccc(Br)o2)c(S(=O)(=O)c2ccccc2)c2nc3ccccc3nc21
IC50 (SUMO E1/E2): 20.3 µM (active)
EC50 (Protein RecA): 108 µM (inconclusive)
AC50 [1]: 7.79 µM (active)
CC50 (Vero): > 40 µM (active)
IC50 (SUMO-activating enzyme [2]): 10.6 µM (active)
IC50 (Genome polyprotein): 75.4 µM (active)
IC50 (SUMO-activating enzyme [3]): 2.8 µM (active)

O=C(NCCN1CCC2(CC1)C(=O)NCN2c1ccccc1)c1cc2cc(F)ccc2[nH]1
IC50 (Phospholipase D1): 0.1 µM (active)
IC50 (Phospholipase D2): 0.07 µM (active)

Cc1cnc(C=NNC(N)=S)c2cccc(N)c12
IC50 [4]: 8.74 µM (active)
IC50 [5]: 2.83 µM (active)
IC50 (Nonstructural protein 1): 2.39 µM (active)
IC50 [6]: 32.1 µM (inactive)
IC50 [7]: > 66 µM (inactive)
IC50 [8]: > 66 µM (inactive)
CC50 (Vero): 4.93 µM (active)

C[C@@H](CN1CCC(n2c(=O)[nH]c3cc(Br)ccc32)CC1)NC(=O)c1ccc(F)cc1
IC50 (Phospholipase D1): 0.004 µM (active)
IC50 (Phospholipase D2): 0.34 µM (active)
